The values below come from patent EP3037106A1, “TXA2 inhibitor as stimulator or inducer of MHC Class I cross-presentation” (INSTITUT PASTEUR, priority 2014, dated 2016).

The subject of series [1] is bone marrow derived macrophages (BMMs). Kind of series: FRET assay for antigen cytosolic transfer (CCF4-AM/β-lactamase) in bone marrow derived macrophages. The series is classed as cell-based, C57/black-6 mice. The following applies: for transfer of β-lactamase to the cytosol (450/535 nm ratio, CCF4 cleavage): compound 15 minutes at 37°C (AACOCF3 0.25mM, baïcalein 1mM, indomethacin 1mM, sulindac sulphide 1mM, ICI192605 1mM, arachidonic acid 80µM), then 1 mg/ml β-lactamase 90 minutes at 37°C; for effect on indomethacin induced transfer of β-lactamase to the cytosol: indomethacin 1mM 15 minutes, then β-lactamase with wortmannin 0.5µM, radicicol 25µM or Pyr41 10µM for 90 minutes at 37°C; for reversal of inhibitor-induced antigen transfer to the cytosol (complementation): after indomethacin 1mM or AACOCF3 0.25mM, diMePGE2 or U46619 10µM added with β-lactamase for 90 minutes at 37°C. How it is done: Primary Cells and Mice - Bone marrow derived dendritic cells and macrophages were isolated by flushing femur and tibia from 6 to 9 weeks old C57/black-6 mice with ROSWELL PARK MEMORIAL INSTITUTE-1640 (RPMI-1640) supplemented with GLUTAMAX using 5 ml syringes (BD PLASTIPAK) and 0.5 x 16 mm needles 25G 5/8 (BD MicroLance). After centrifugation at 1000 rpm for 4 minutes, cells were resuspended in 1.66% NH4Cl, and put at 4°C for 10 minutes. After centrifugation at 1,000 rpm for 4 minutes, cells were quantified and incubated at 37°C/5% CO2 for 7 to 10 days in RPMI-1640 with GLUTAMAX containing 10% v/v fetal calf serum (GIBCO) and 50µg/ml penicillin/streptomycin (GIBCO). Granulocytes and macrophages-colony stimulating factor (GM-CSF, MILTENIY BIOTEC) and macrophages-colony stimulating factor (M-CSF, PREPROTECH) were added at day 0 at a concentration of 50 ng/ml in order to allow dendritic cells or macrophages differentiation. Dendritic cells were replated every 3 days adding each time fresh GM-CSF. Macrophages were supplemented with fresh M-CSF at day 4 and replated at day 7 with M-CSF at 25ng/ml. Plasmacytoïd and conventional dendritic cells were isolated from C57/black-6 mice spleen using a plasmacytoïd dendritic cell isolation kit (MILTENYI BIOTEC) and a CD8+ dendritic cell isolation kit (MILTENYI BIOTEC). BMDCs, pDCs and cDCs were adhered on 0.01% poly-lysine coated plates in phosphate buffer saline (PBS).
(§1) FRET assay for antigen cytosolic transfer - 30,000 to 50,000 cells were seeded on 96 well plates and loaded in a mix containing 3.3µM CCF4-AM (INVITROGEN), 1mM probenecid (SIGMA) and 1.5µl solution B (INVITROGEN) in EM buffer (120mM NaCl, 7mM KCI, 1.8mM CaCl2, 0.8mM MgCl2, 5mM glucose and 25mM HEPES at pH 7.3) in a final volume of 30 µl at 37°C. Following 1 mg/ml β-lactamase incubation in EM buffer, cells were washed with 1mM PBS/probenecid and imaged in EM buffer containing 1mM probenecid.
(§2) Fluorescence microscopy and image analysis - All acquisitions were performed on a NIKON TI WIDEFIELD microscope with a 20X N-Plan Objective. Experiments in triplicates were repeated at least 3 times independently for each condition using 25 pictures per replicate randomly and automatically. Image analysis was performed using custom-designed algorithms as described in Ray et al. 2010 (Cell Microbiol. 12(4): 545-556) and Simeone et al. 2012 (PLoS Pathog. 8(2): e1002507). Briefly, the 450 and 535 nm emission signals were scored automatically for each individual cells on a large set of images using METAMORPH. The quantitative parameters were then exported as an EXCEL file in which the ratio between the intensity of the 450 and 535 nm emission signals were presented as an average of the ratio in the whole cell population. After algorithm processing, mean ratios 450/535 nm from different replicates were obtained and pooled together as an average and the status of cytosolic transfer was assessed. Error bars represent standard deviation.

For series [2] the following is noted: at 37°C; cited from earlier work.
For series [3], the system named is BV2 macrophages-like cells. The series is described as follows: FRET assay for antigen cytosolic transfer (CCF4-AM/β-lactamase) in BV2 macrophage like cells. The following applies: indomethacin 1mM 15 minutes; for indomethacin induced transfer of β-lactamase adsorbed to beads or expressed by E. coli: increasing amount of beads adsorbed or E. coli expressed β-lactamase at 37°C for 90 minutes; for indomethacin induced cytosolic transfer as a function of external β-lactamase concentration: increasing amount of β-lactamase at 37°C for 90 minutes. The series is classed as cell-based, Murine. Here is the method:
Cell lines - Murine Raw and BV2 macrophages like cells were cultured in RPMI-1640 with GLUTAMAX (GIBCO) containing 10% v/v fetal calf serum (GIBCO) and 50 µg/ml penicillin/streptomycin (GIBCO). B3Z were cultured in the same medium but supplemented with 1mg/ml G418 (SIGMA) and 0.4 mg/ml hygromycin B (SIGMA). JAWS-II cells were cultured in Iscove's Modified Dulbecco's Media (IMDM) with L-Glutamine and 25mM HEPES containing 10% v/v fetal calf serum (GIBCO), 50 µg/ml penicillin/streptomycin (GIBCO) and 5ng/ml GM-CSF. All cell lines were maintained at 37°C and 5% CO2.
Preparation of beads and bacteria - E. coli DH5α were used expressing β-lactamase from a pBAD18 plasmid. After PBS washing, bacteria were re-suspended in EM buffer and the MOI was calibrated by measuring the absorbance of the overnight culture at OD 600nm. 3µm polystyrene beads (TEBU-BIO) were washed once before adsorption with β-lactamase at 4°C on a rotating wheel overnight. After PBS washing, beads were re-suspended in PBS buffer.
as §1, §2

For series [4], the system named is bone marrow derived macrophages (BMMs). The series is described as follows: Cytosolic delivery of fluorescent antigens (Cy3-dextran, Cy3-β-lactamase, Cy3) by widefield microscopy. The series is classed as cell-based, C57/black-6 mice. The following applies: indomethacin 1mM 15 minutes; for transfer of fluorescent dextran to the cytosol: 10-kDa Cy3-dextran 1 mg/ml for 90 minutes; for transfer of Cy3-labelled β-lactamase to the cytosol: Cy3-Bla 0.2 mg/ml for 90 minutes.

Another series relates to HeLa cells. The series is described as follows: FRET assay for antigen cytosolic transfer (CCF4-AM/β-lactamase) in HeLa cells. The series is classed as cell-based. The following applies: indomethacin 1mM 15 minutes at 37°C, 1 mg/ml β-lactamase 90 minutes.
In series [5] the test system is bone marrow derived dendritic cells (BMDCs). Kind of series: B3Z cross-priming experiments (cross-presentation of ovalbumin). Type of series: cell-based, C57/black-6 mice. The following applies: 15 minutes indomethacin 1mM or lactacystine 3µM, serial dilutions of ovalbumin 4 hours, B3Z hybridoma cells 1:1 overnight. How it is done:
B3Z cross-priming experiments - 50,000 BMDCs per well were seeded on poly-L-lysine coated 96 well plates. After treatment with DMSO, 3µM lactacystine, or 1mM indomethacin for 15 minutes in RPMI-1640 complemented with 10% v/v fetal calf serum and 50 µg/ml penicillin/streptomycin at 37°C, cells were incubated with serial dilutions (from 3 to 0.0275 mg/ml) of ovalbumin (EUROMEDEX) for 4 hours. Triplicates were performed for each concentration and serial dilutions of the SIINFEKL 257-264 peptide (POLYPEPTIDE GROUP) were used as positive control (dilutions 1/10 starting from 0.1µg/ml). After 3 washes, cells are incubated overnight with 50,000 B3Z hybridoma cells at 37°C, washed once and subjected to the chlorophenol red-D-galactopyranoside (CPRG) detergent mix containing 100mM β-mercaptoethanol, 100mM MgCl2, 0.125% NP40 and 0.15mM CPRG at 37°C for 4 hours. OD 492 as indicator of β-galactosidase (lacZ) activity produced under the control of the interleukin 2 promoter was subsequently measured by plate reader. Data were obtained from 3 independent experiments and plotted by GRAPHPAD PRISM (error bars: standard deviation).

Entries after “also recorded” stand apart in the source; their conditions may differ.

On to `CCCCC/C=C\C/C=C\C/C=C\C/C=C\CCCC(=O)C(F)(F)F` [AACOCF3, 1,1,1-trifluoro-6Z,9Z,12Z,15Z-heneicosatetraen-2-one], for which the “transfer of β-lactamase to the cytosol (450/535 nm ratio, CCF4 cleavage)” value (shortened to “transfer … (450/535 nm ratio, CCF4 cleavage)”) in series [1] is “dramatically and robustly boosted transfer of the model antigen β-lactamase to the cytosol”.
Take `O=C(O)CC/C=C\CC1COC(c2ccccc2Cl)OC1c1ccccc1O` (stereo not drawn) [ICI192605, 4-(Z)-6-(2-o-Chlorophenyl-4-o-hydroxyphenyl-1,3-dioxan-cis-5-yl)hexenoic acid]: the “transfer … (450/535 nm ratio, CCF4 cleavage)” value in series [1] is “led to a robust antigen transfer”.
Turning to `CCCCC[C@H](O)/C=C/[C@H]1[C@H](O)CC(=O)[C@@H]1C/C=C\CCCC(=O)O` [PGE2, prostaglandin E2], the half-life entry in series [2] is “less than one minute”.
For the compound `CCOC(=O)c1ccc(N2NC(=O)/C(=C/c3ccc([N+](=O)[O-])o3)C2=O)cc1` [Pyr41], the “effect on indomethacin induced transfer of β-lactamase to the cytosol” value in series [1] is recorded as “decreased cytosolic antigen transfer induced by indomethacin; also recorded: restrained”.
Turning to `CCCCC[C@H](O)/C=C/[C@H]1O[C@H]2C[C@H](O2)[C@@H]1C/C=C\CCCC(=O)O` [TXA2, Thromboxane A2], in series [2], the half-life result is “less than one minute”.
`CCCCC[C@H](O)/C=C/[C@@H]1[C@@H](C/C=C\CCCC(=O)O)[C@H]2CO[C@@H]1C2` [U46619]: in series [1], the “reversal of inhibitor-induced antigen transfer to the cytosol (complementation)” value is recorded as “reduced the inhibitor-induced antigen transfer to the cytosol”.
Turning to `CCCCC/C=C\C/C=C\C/C=C\C/C=C\CCCC(=O)O` [arachidonic acid], in series [1], the “transfer … (450/535 nm ratio, CCF4 cleavage)” value is recorded as “triggered cytosolic access of our model antigen β-lactamase”.
On to `C/C=C/[C@H]1O[C@@](O)([C@@H](C)[C@H](O)[C@H](C)[C@H]2OC(=O)/C(OC)=C/C(C)=C/[C@@H](C)[C@@H](O)[C@@H](C)[C@@H](O)[C@H](C)C/C(C)=C/C=C/[C@@H]2OC)C[C@@H](O[C@H]2C[C@@H](O)[C@H](OC(N)=O)[C@@H](C)O2)[C@@H]1C` [conB, Concanamycin B], for which the “cytosolic transfer of β-lactamase on increased endosomal antigen stability” value in series [1] (concanamycin B 25nM or protease inhibitors 1X with β-lactamase for 90 minutes at 37°C) was “neither conB nor PI incubation led to any cytosolic transfer of β-lactamase”.
Consider `CCCCC(C)(C)[C@H](O)/C=C/[C@H]1[C@H](O)CC(=O)[C@@H]1C/C=C\CCCC(=O)O` [dimethylPGE2, dimethyl-prostaglandin E2], for which the “reversal of inhibitor-induced antigen transfer to the cytosol (complementation)” value in series [1] is reported as “did not lead to a reversal of the effect of antigen transfer to the cytoplasm”.
Take `COc1ccc2c(c1)c(CC(=O)O)c(C)n2C(=O)c1ccc(Cl)cc1` [indomethacin, 1-(4-chlorobenzoyl)-5-methoxy-2-methyl-1H-indole-3-acetic acid]: the figures for the “indomethacin induced transfer of β-lactamase adsorbed to beads or expressed by E. coli” value in series [3] and in series [3] (listed as Indomethacin) were “same dose-dependency” and “is also able to trigger the transfer of β-lactamase when adsorbed to beads or expressed by E. coli in BV2 macrophages-like cells in a dose dependent manner”, respectively. Also, the “indomethacin induced cytosolic transfer as a function of external β-lactamase concentration” value in series [3] was “dose-dependent on the external concentration of β-lactamase”; in series [3] (listed as Indomethacin), “depends on the external concentration of β-lactamase”. Further, the “transfer of fluorescent dextran to the cytosol” value in series [4] was “the staining switched to cytosolic staining”; in series [4] (listed as Indomethacin) it was “triggers the transfer of Cy3 labeled β-lactamase, dextran and Cy3 to the cytosol”. Moreover, the “transfer of Cy3 alone to the cytosol” value in series [4] (Cy3 0.2 mg/ml for 90 minutes, listed as Indomethacin) was “triggers the transfer of Cy3 labeled β-lactamase, dextran and Cy3 to the cytosol”. Besides, the “transfer of Cy3-labelled β-lactamase to the cytosol” value in series [4] is “induced not only the transfer of Cy3-labelled β-lactamase”; in series [4] (listed as Indomethacin), “triggers the transfer of Cy3 labeled β-lactamase, dextran and Cy3 to the cytosol”. In addition, the “transfer of β-lactamase to the cytosol in HeLa cells” value in the series with HeLa cells is “no cytosolic β-lactamase delivery”; in the series with HeLa cells (listed as Indomethacin) it was “does not trigger the transfer of β-lactamase to the cytosol”. For the same compound, the “transfer … (450/535 nm ratio, CCF4 cleavage)” value in series [1] is given as “led to a robust cytosolic transfer of beta-lactamase”. Further, the entries for the “cross-presentation of ovalbumin (B3Z lacZ activity, CPRG)” value in series [5] and in series [5] (listed as Indomethacin) were “displayed enhanced capacities for cross-priming compared to the DMSO control” and “promotes cross-presentation of ovalbumin”, respectively.
`CC(=O)N[C@@H](CSC(=O)[C@]1([C@@H](O)C(C)C)NC(=O)[C@H](C)[C@@H]1O)C(=O)O` [lactacystin]: the “cross-presentation of ovalbumin (B3Z lacZ activity, CPRG)” value in series [5] is “do not cross-present ovalbumin”.
With `C[C@@H]1C[C@H]2O[C@@H]2/C=C\C=C\C(=O)Cc2c(Cl)c(O)cc(O)c2C(=O)O1` [radicicol], in series [1], the “effect on indomethacin induced transfer of β-lactamase to the cytosol” value is listed as “restrained”.
